Each block holds one compound with its values, some of them ahead of it.
How the values were obtained:
[1] = tested on: S. aureus ATCC 29213; test: MIC by serial dilution (CLSI), S. aureus ATCC 29213; type: cell-based, Staphylococcus aureus
[2] = tested on: S pyogenes; test: MIC by serial dilution (CLSI), firmicutes bacteria; type: cell-based, Streptococcus pyogenes; conditions: fresh clinical isolate
Method: (§1) Determination of the antimicrobial activity of substances was carried out on dense and liquid nutrient media. To assess the minimum inhibitory concentration (MIC), the serial dilution method was used, according to the recommendations of CLSI (Clinical Laboratories and Standards Institute, formerly National Committee for Clinical Laboratory Standards) (Clinical Laboratories and Standards Institute. Methods for Dilution Antimicrobial Susceptibility Tests for Bacteria That Grow Aerobically; Approved Standard—Seventh Edition Document M7-A7 CLSI, Wayne, Pa., 2006; Clinical Laboratories and Standards Institute).
(§2) The assessment of the antimicrobial activity of substances against firmicute bacteria was performed on fresh clinical isolates of strains of Streptococcus pyogenes, Streptococcus mitis, Bacillus subtilis, Bacillus cereus, Corynebacterium ulcerans, Micrococcus luteus.

[3] = tested on: S. mitis; test: MIC by serial dilution (CLSI), firmicutes bacteria; type: cell-based, Streptococcus mitis; conditions: fresh clinical isolate
Method: as §1, §2

[4] = tested on: B. subtilis; test: MIC by serial dilution (CLSI), firmicutes bacteria; type: cell-based, Bacillus subtilis; conditions: fresh clinical isolate
Method: as §1, §2

[5] = tested on: B. cereus; test: MIC by serial dilution (CLSI), firmicutes bacteria; type: cell-based, Bacillus cereus; conditions: fresh clinical isolate
Method: as §1, §2

[6] = tested on: L. monocytogenes; test: MIC by serial dilution (CLSI), firmicutes bacteria; type: cell-based
[7] = tested on: C. ulcerans; test: MIC by serial dilution (CLSI), firmicutes bacteria; type: cell-based, Corynebacterium ulcerans; conditions: fresh clinical isolate
Method: as §1, §2

[8] = tested on: M. lutteus; test: MIC by serial dilution (CLSI), firmicutes bacteria; type: cell-based, Micrococcus luteus; conditions: fresh clinical isolate
Method: as §1, §2

[9] = tested on: Escherichia coli ATCC29592; test: MIC, gracilicutes and wall-less bacteria; type: cell-based; conditions: E. coli ATCC29592
Method: as §1, with “Institute). The study of the effect on strains was performed on fresh clinical isolates of Haemophilus influenzae, Neisseria meningitides, Ureaplasma urealyticum strains, as well as on the Escherichia coli ATCC29592 strain.” for “Institute).”

[10] = tested on: H. influenzae; test: MIC, gracilicutes and wall-less bacteria; type: cell-based, Haemophilus influenzae; conditions: fresh clinical isolate, Table 2
Method: as §1, with “Institute). The study of the effect on strains was performed on fresh clinical isolates of Haemophilus influenzae, Neisseria meningitides, Ureaplasma urealyticum strains, as well as on the Escherichia coli ATCC29592 strain.” for “Institute).”

[11] = tested on: N. meningitides; test: MIC, gracilicutes and wall-less bacteria; type: cell-based, Neisseria meningitides; conditions: fresh clinical isolate
Method: as §1, with “Institute). The study of the effect on strains was performed on fresh clinical isolates of Haemophilus influenzae, Neisseria meningitides, Ureaplasma urealyticum strains, as well as on the Escherichia coli ATCC29592 strain.” for “Institute).”

[12] = tested on: U. urealyticum; test: MIC, gracilicutes and wall-less bacteria; type: cell-based, Ureaplasma urealyticum; conditions: fresh clinical isolate
Method: as §1, with “Institute). The study of the effect on strains was performed on fresh clinical isolates of Haemophilus influenzae, Neisseria meningitides, Ureaplasma urealyticum strains, as well as on the Escherichia coli ATCC29592 strain.” for “Institute).”

[13] = tested on: S. aureus SA77; test: MIC, S. aureus strains with multiple resistance; type: cell-based, Staphylococcus aureus; conditions: SA77, VRSA strain
Method: as §1
(§3) The study of the effect of Compound 1a on strains with multiple resistance to existing antibiotics was performed on fresh clinical isolates of strains: S. aureus VT-V-18, S. aureus VT-E-25 S. aureus VT-A-199 and S. aureus VT-P-82, as well as S. aureus strain American Type Culture Collection (Rockville, Md.) and strains S. aureus SA77 and S. aureus SA85,

[14] = tested on: S. aureus SA85; test: MIC, S. aureus strains with multiple resistance; type: cell-based, Staphylococcus aureus; conditions: SA85, VRSA strain
Method: as §1, §3

[15] = tested on: S. aureus VT-A-199; test: MIC, S. aureus strains with multiple resistance; type: cell-based, Staphylococcus aureus; conditions: VT-A-199, MRSA strain, clinical isolate
Method: as §1, §3

[16] = tested on: S. aureus VT-E-25; test: MIC, S. aureus strains with multiple resistance; type: cell-based, Staphylococcus aureus; conditions: VT-E-25, MRSA strain, clinical isolate
Method: as §1, §3

[17] = tested on: S. aureus VT-P-82; test: MIC, S. aureus strains with multiple resistance; type: cell-based, Staphylococcus aureus; conditions: VT-P-82, MRSA strain, clinical isolate
Method: as §1, §3

[18] = tested on: S. aureus VT-V-18; test: MIC, S. aureus strains with multiple resistance; type: cell-based, Staphylococcus aureus; conditions: VT-V-18, MRSA strain, clinical isolate
Method: as §1, §3

[19] = tested on: various strains of S. aureus; test: Effects on various strains of S. aureus (MRSA, VRSA, MSSA), overall; type: cell-based, Staphylococcus aureus; conditions: S. aureus strains of Table 3
Method: as §1, §3

[20] = tested on: S. aureus ANCC29213 biofilms; test: Survival of bacteria in biofilms (CFU count); type: cell-based, Staphylococcus aureus; conditions: 10 μg/ml; for Number of CFU: 24 h biofilm, incubated 24 hours at 37° C.
Method: S. aureus ANCC29213 bacteria were grown in a 24-well plateau in LB medium for 24 hours at 37° C. After that, Compound 1a and lincomycin (8 wells for each preparation and control without preparations) were added to the wells at final concentrations of 10 μg/ml and incubated for 24 hours at 37° C. After incubation, the medium was removed, the biofilms were washed with a sterile solution of isotonic sodium chloride, the biofilms were removed from the bottom of the wells, resuspended in isotonic sodium chloride solution, and the number of colony forming units (CFU) was determined by the method of serial dilutions.

[21] = tested on: Staphylococcus aureus ATCC 38591; test: Acute generalized infection in C57BL6 mice, death of mice; type: in vivo; conditions: 10 mice
Method: To study the chemotherapeutic efficacy, a model of acute generalized infection in small animals was used. C57BL6 mice were intraperitoneally infected with Staphylococcus aureus ATCC 38591 at a dose of 1×10^8 microbial cells. The infectious dose was established in preliminary studies. Mice infected with the same dose of microbial culture but not treated served as controls.
The preparations were dissolved in an isotonic sodium chloride solution and substance 1a or Lincomycin was administered. 2 hours after infection, the drugs were administered orally daily at doses of 10 to 100 mg/kg, 2 times a day.
The death of mice was taken into account daily for 7 days.

[22] = tested on: S. aureus; test: Clinical treatment of tonsillitis, eradication of the pathogen; type: in vivo, Staphylococcus aureus; conditions: for Eradication, %: S. aureus tonsillitis patients
Method: (§4) This pathology was chosen by us as one of the above lists to confirm the effectiveness and practical applicability of the claimed compound. The study was performed on two groups of patients, totaling 138 people, who received the drug enterally twice a day at doses from 500 mg to 2000 mg. The compound was administered as a pharmaceutical composition containing Compound 1a in acetate form in an isotonic solution of a pharmaceutically acceptable sodium chloride carrier.

[23] = tested on: S. pyogenes; test: as above; type: in vivo, Streptococcus pyogenes; conditions: for Eradication, %: S. pyogenes tonsillitis patients
Method: as §4

[24] = tested on: H. influenzae; test: MIC of 1a and its combinations with antimicrobials, serial dilutions; type: cell-based, Haemophilus influenzae; conditions: liquid nutrient medium, substance alone
Method: We used a strain of H. influenzae grown on a liquid nutrient medium. The minimum inhibitory concentration was determined by the method of serial dilutions.

[25] = tested on: methicillin- and vancomycin-resistant strains of Staphylococcus aureus and Streptococcus spp; conditions: literature statement; cited from earlier work
[26] = 10 mg/kg orally 2 times a day, day 2
[27] = 10 mg/kg orally 2 times a day, day 4
[28] = 20 mg/kg orally 2 times a day, day 3
[29] = 20 mg/kg orally 2 times a day, day 4
[30] = Haemophilus influenzae, read-out: MIC

Structure (SMILES): CC(=O)[O-].O=c1[nH]c(=O)c2cc3cc(Br)cc(Br)c3[o+]c2[nH]1 [Compound 1a, 7,9-dibromo-2,4-dioxo-1,2,3,4-tetrahydrochromeno[2,3-d]-pyrimidinium-10 acetate]
MIC ([1]; ATCC 29213, strain MSSA, Table 3): 0.5 µg/mL
MIC ([1]; S. aureus ATCC 29213, Table 1): 0.5 µg/mL
MIC [2]: 0.1 µg/mL
MIC [3]: 0.1 µg/mL
MIC [4]: 1.0 µg/mL
MIC [5]: 1.0 µg/mL
MIC [6]: 1.0 µg/mL
MIC [7]: 0.5 µg/mL
MIC [8]: 1.0 µg/mL
MIC [9]: 20.0 µg/mL
MIC [10]: 10.0 µg/mL
MIC [11]: 10.0 µg/mL
MIC [12]: 10.0 µg/mL
MIC [13]: 0.5 µg/mL
MIC [14]: 1.0 µg/mL
MIC [15]: 1.0 µg/mL
MIC [16]: 1.0 µg/mL
MIC [17]: 2.0 µg/mL
MIC [18]: 0.5 µg/mL
Resistance [19]: Not detected
efficacy on methicillin/vancomycin-resistant versus susceptible strains [19]: did not differ
reduction of the number of bacteria capable of growth in biofilms ([20]; 24 hours): 1000 times
Number of CFU [20]: 4.0 ± 1.0 × 10^5 CFU
Mice death [21, 26]: 1
Mice death [21, 27]: 1
Mice death ([21]; 10 mg/kg orally 2 times a day, day 5): 2
Mice death ([21]; 10 mg/kg orally 2 times a day, day 6): 1
Mice death [21, 28]: 1
Mice death [21, 29]: 1
Mice death ([21]; 20 mg/kg orally 2 times a day, day 5): 2
Eradication, % ([22]; day 4, enterally twice a day): 85.14%
Eradication, % ([22]; day 8): 91.89%
Eradication, % ([22]; day 14): 94.59%
Eradication, Number of patients ([22]; day 4, enterally twice a day): 63
Eradication, Number of patients ([22]; day 8): 68
Eradication, Number of patients ([22]; day 14): 70
Eradication, % ([23]; day 4): 94.37%
Eradication, % ([23]; day 8): 95.77%
Eradication, % ([23]; day 14): 95.77%
Eradication, Number of patients ([23]; day 4): 67
Eradication, Number of patients ([23]; day 8): 68
Eradication, Number of patients ([23]; day 14): 68
MIC [24]: 10.0 µg/mL

Structure (SMILES): CC1(C)S[C@@H]2[C@H](NC(=O)COc3ccccc3)C(=O)N2[C@H]1C(=O)O [Phenoxymethylpenicillin, reference compound]
Eradication, % ([22]; day 4, enterally twice a day): 4.11%
Eradication, % ([22]; day 8): 9.59%
Eradication, % ([22]; day 14): 13.70%
Eradication, Number of patients ([22]; day 4, enterally twice a day): 3
Eradication, Number of patients ([22]; day 8): 7
Eradication, Number of patients ([22]; day 14): 10
Eradication, % ([23]; day 4): 10.14%
Eradication, % ([23]; day 8): 11.59%
Eradication, % ([23]; day 14): 13.04%
Eradication, Number of patients ([23]; day 4): 7
Eradication, Number of patients ([23]; day 8): 8
Eradication, Number of patients ([23]; day 14): 9

Structure (SMILES): CCC[C@@H]1C[C@@H](C(=O)N[C@@H]([C@H]2O[C@H](SC)[C@H](O)[C@@H](O)[C@H]2O)[C@@H](C)O)N(C)C1 [Lincomycin]
change of the number of CFUs in biofilms ([20]; 24 hours): does not change the number of CFUs
Number of CFU [20]: 2.0 ± 1.0 × 10^8 CFU
Mice death [21, 26]: 2
Mice death [21, 27]: 1
Mices death ([21]; 10 mg/kg orally 2 times a day, fifth day, head printed 1): 2
Mices death ([21]; 10 mg/kg orally 2 times a day, sixth day column, head printed 2): 1
Mice death [21, 28]: 1
Mice death [21, 29]: 1
Mices death ([21]; 20 mg/kg orally 2 times a day, fifth day, head printed 1): 3
Mices death ([21]; 50 mg/kg orally 2 times a day, day 3): 1
Mices death ([21]; 50 mg/kg orally 2 times a day, day 4): 1
Mices death ([21]; 50 mg/kg orally 2 times a day, fifth day, head printed 1): 2
effect on MRSA and VRSA strains [25]: no effect

MIC [24, 30]: 0.05 µg/mL
Structure (SMILES): C[C@H]1COc2c(N3CCN(C)CC3)c(F)cc3c(=O)c(C(=O)O)cn1c23 [Levofloxacin]

MIC [24, 30]: 2 µg/mL
Structure (SMILES): CN(C)[C@@H]1C(O)=C(C(N)=O)C(=O)[C@@]2(O)C(O)=C3C(=O)c4c(O)cccc4[C@@](C)(O)[C@H]3C[C@@H]12 [Tetracycline]

Structure (SMILES): O=C([O-])CCC(=O)[O-].O=c1[nH]c(=O)c2cc3cc(Br)cc(Br)c3[o+]c2[nH]1.O=c1[nH]c(=O)c2cc3cc(Br)cc(Br)c3[o+]c2[nH]1 [Compound 1b, 7,9-dibromo-2,4-dioxo-1,2,3,4-tetrahydrochromeno[2,3-d]-pyrimidinium-10 succinate]
MIC ([1]; S. aureus ATCC 29213, Table 1): 1.0 µg/mL
MIC [2]: 2.0 µg/mL
MIC [3]: 2.0 µg/mL
MIC [4]: 2.0 µg/mL
MIC [5]: 4.0 µg/mL
MIC [6]: 4.0 µg/mL
MIC [7]: 2.0 µg/mL
MIC [8]: 2.0 µg/mL
MIC [9]: 30.0 µg/mL
MIC [10]: 20.0 µg/mL
MIC [11]: 20.0 µg/mL
MIC [12]: 20.0 µg/mL
